Results published in paper PMC5740388, “In Vitro Antibacterial Properties of Cefiderocol, a Novel Siderophore Cephalosporin, against Gram-Negative Bacteria” (Antimicrobial Agents and Chemotherapy, 2017).
Values after ≈ are worked out from the molar mass of the structure shown. Like-named read-outs stand apart in the source and are kept apart here.

Legend:
[1] = molecular target: T1, PBP2 of K. pneumoniae SR22291 (Klebsiella pneumoniae, UniProt A6T696); assay: competition with […]benzylpenicillin for PBPs; assay type: binding; conditions: covalent
T1 construct: gene mrdA
T1 sequence (A6T696 1-633): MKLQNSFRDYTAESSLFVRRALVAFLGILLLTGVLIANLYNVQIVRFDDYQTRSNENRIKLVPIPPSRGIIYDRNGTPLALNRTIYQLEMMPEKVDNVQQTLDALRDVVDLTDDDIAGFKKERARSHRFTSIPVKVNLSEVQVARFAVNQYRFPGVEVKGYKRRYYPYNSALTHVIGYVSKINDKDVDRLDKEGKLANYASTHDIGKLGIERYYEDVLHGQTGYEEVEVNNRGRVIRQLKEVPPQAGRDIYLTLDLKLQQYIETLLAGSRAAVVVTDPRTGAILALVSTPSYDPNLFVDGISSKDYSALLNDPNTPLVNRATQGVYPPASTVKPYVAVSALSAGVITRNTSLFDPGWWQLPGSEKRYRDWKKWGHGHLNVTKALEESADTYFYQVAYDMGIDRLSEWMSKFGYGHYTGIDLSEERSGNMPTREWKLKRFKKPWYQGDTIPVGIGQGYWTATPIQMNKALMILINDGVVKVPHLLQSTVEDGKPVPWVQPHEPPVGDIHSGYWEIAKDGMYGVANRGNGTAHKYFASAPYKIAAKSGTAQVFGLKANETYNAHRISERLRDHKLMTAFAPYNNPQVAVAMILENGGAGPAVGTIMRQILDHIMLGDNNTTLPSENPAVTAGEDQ

[2] = molecular target: T2, PBP1a of P. aeruginosa ATCC 27853 (Pseudomonas aeruginosa, UniProt Q07806); assay: competition with […]benzylpenicillin for PBPs; assay type: binding; conditions: covalent
T2 construct: gene mrcA

[3] = molecular target: T3, PBP3 of P. aeruginosa ATCC 27853 (Pseudomonas aeruginosa, UniProt G3XD46); assay: competition with […]benzylpenicillin for PBPs; assay type: binding; conditions: covalent
T3 construct: gene ftsI

[4] = molecular target: T4, PBP4 of E. coli NIHJ JC-2 (Escherichia coli, UniProt P24228); assay: competition with […]benzylpenicillin for PBPs; assay type: binding; conditions: read-out: % inhibition at 4 μg/ml
T4 construct: gene dacB

[5] = molecular target: T5, PBP3 of E. coli NIHJ JC-2 (Escherichia coli, UniProt P0AD68); assay: competition with […]benzylpenicillin for PBPs; assay type: binding; conditions: covalent
T5 construct: gene ftsI

[6] = molecular target: T6, PBP4 of P. aeruginosa ATCC 27853 (Pseudomonas aeruginosa, UniProt Q9HZG1); assay: competition with […]benzylpenicillin for PBPs; assay type: binding; conditions: covalent; read-out: IC50 (μg/ml) / P. aeruginosa ATCC 27853 / Cefiderocol
T6 construct: gene PA3047

[7] = molecular target: T7, PBP3 of A. baumannii ATCC 17978 (Acinetobacter baumannii, UniProt A0ABX6CK25); assay: competition with Bocillin FL for PBPs; assay type: binding; conditions: covalent
T7 construct: gene ftsI
T7 sequence (A0ABX6CK25 1-610): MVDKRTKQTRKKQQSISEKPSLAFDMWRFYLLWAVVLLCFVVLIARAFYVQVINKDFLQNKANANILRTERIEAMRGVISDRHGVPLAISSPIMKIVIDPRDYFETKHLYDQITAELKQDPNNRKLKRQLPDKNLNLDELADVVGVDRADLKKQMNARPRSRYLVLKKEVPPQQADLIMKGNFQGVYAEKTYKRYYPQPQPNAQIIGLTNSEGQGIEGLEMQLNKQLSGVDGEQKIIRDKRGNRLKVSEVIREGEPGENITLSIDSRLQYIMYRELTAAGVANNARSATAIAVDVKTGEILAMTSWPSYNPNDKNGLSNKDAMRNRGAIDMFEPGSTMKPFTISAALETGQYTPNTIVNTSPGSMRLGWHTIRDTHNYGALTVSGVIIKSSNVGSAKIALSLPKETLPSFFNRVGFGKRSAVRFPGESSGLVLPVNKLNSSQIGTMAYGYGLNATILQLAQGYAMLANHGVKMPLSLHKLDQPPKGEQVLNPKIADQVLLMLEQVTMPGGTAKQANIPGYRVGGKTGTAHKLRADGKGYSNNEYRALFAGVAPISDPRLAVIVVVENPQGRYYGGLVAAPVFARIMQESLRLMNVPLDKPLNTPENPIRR
Text: competition with Bocillin FL for PBPs on PBP3 of A. baumannii ATCC 17978

[8] = tested on: T8, PBP1a and PBP1b of A. baumannii ATCC 17978 (not separated); assay: competition with Bocillin FL for PBPs; assay type: binding, Acinetobacter baumannii; conditions: covalent; joint value for PBP1a and PBP1b
T8 construct: gene ponA; one joint IC50 for PBP1a and PBP1b
Text: competition with Bocillin FL for PBPs on PBP1a and PBP1b of A. baumannii ATCC 17978 (not separated)

[9] = molecular target: T4, PBP4 of E. coli NIHJ JC-2; assay: competition with […]benzylpenicillin for PBPs; assay type: binding; conditions: covalent; read-out: IC50 (μg/ml) / E. coli NIHJ JC-2 / Ceftazidime
[10] = read-out: IC50 (μg/ml) / P. aeruginosa ATCC 27853 / Ceftazidime (converted)

| SMILES | IC50 ([1]; read-out: IC50 (μg/ml) / K. pneumoniae SR22291 / Cefiderocol (converted)) | IC50 ([2]; read-out: IC50 (μg/ml) / P. aeruginosa ATCC 27853 / Cefiderocol (converted)) | IC50 ([3]; read-out: IC50 (μg/ml) / / Cefiderocol (converted)) | inhibition at 4 µg/mL [4] | IC50 ([5]; read-out: IC50 (μg/ml) / E. coli NIHJ JC-2 / Cefiderocol (converted)) | IC50 [6] | IC50 ([7]; read-out: IC50 (μg/ml) / A. baumannii ATCC 17978 ^a / Cefiderocol (converted)) | IC50 (μg/ml) / A. baumannii ATCC 17978 ^a / Cefiderocol [8] | IC50 ([1]; read-out: IC50 (μg/ml) / K. pneumoniae SR22291 / Ceftazidime (converted)) | IC50 [2, 10] | IC50 [3, 10] | IC50 ([5]; read-out: IC50 (μg/ml) / E. coli NIHJ JC-2 / Ceftazidime (converted)) | IC50 ([7]; read-out: IC50 (μg/ml) / A. baumannii ATCC 17978 ^a / Ceftazidime (converted)) | IC50 (μg/ml) / A. baumannii ATCC 17978 ^a / Ceftazidime [8] | IC50 [9] |
| --- | --- | --- | --- | --- | --- | --- | --- | --- | --- | --- | --- | --- | --- | --- | --- |
| CC(C)(O/N=C(\C(=O)N[C@@H]1C(=O)N2C(C(=O)[O-])=C(C[N+]3(CCNC(=O)c4ccc(O)c(O)c4Cl)CCCC3)CS[C@H]12)c1csc(N)n1)C(=O)O [cefiderocol] | 0.0838 µM | 1.13 µM | 0.0798 µM | 63% | 0.0532 µM | > 5.32 µM | 0.891 µM | 1.05 µg/mL (≈ 1.4 µM) |  |  |  |  |  |  |  |
| CC(C)(O/N=C(\C(=O)N[C@@H]1C(=O)N2C(C(=O)[O-])=C(C[n+]3ccccc3)CS[C@H]12)c1csc(N)n1)C(=O)O [ceftazidime] |  |  |  |  |  | > 7.32 µM |  |  | 0.75 µM | 6.62 µM | 0.165 µM | 0.823 µM | 3.26 µM | 0.91 µg/mL (≈ 1.66 µM) | > 1.83 µM |
